Data taken from article PMC8885657, “HPV infection alters vaginal microbiome through down-regulating host mucosal innate peptides used by Lactobacilli as amino acid sources” (Nature Communications, 2022).
Values joined by “and” are separate entries in the source; they are usually repeats but may differ in a detail not shown here. Equal values may be shown once. Where no end group is shown, it is not given here.

What was measured:
[1] = test system: Lactobacillus crispatus DSM 20356; assay: Antimicrobial assay (surviving colonies, CFU count); type: cell-based; settings: for antimicrobial/protective activity in reducing environment: peptides pre-incubated with 2 mM DTT 30 min 37 °C, 6 h with bacteria, n = 6; for Bacterial survival (surviving colonies): Fig 5E, L. crispatus, individual replicates; for Bacterial survival (surviving colonies) / positive effect on survival in acidic conditions: pH 5.8; for positive effect on survival in potassium phosphate buffer: KPB pH 7.4, 10 mM; for positive effect on survival in potassium phosphate buffer / positive effect on survival in acidic conditions / effect on bacterial growth/survival (percentage of surviving colonies): 6 h; for positive effect on survival in potassium phosphate buffer / positive effect on survival in acidic conditions: n = 4; for effect on bacterial growth/survival (percentage of surviving colonies): peptide 1–10 µg/ml, 5 × 10^4 CFU/ml, 10 mM sodium phosphate buffer, 37 °C, plated on Columbia Blood agar, n = 3; for incubation time at which a significant increased percentage of surviving colonies was detected: starvation assay (no nutrients), 45 min to 9 h, n = 8
Method: (§1) Bacterial strains Lactobacillus crispatus DSM 20356, Lactobacillus iners CIP 105923 and Garnerella vaginalis CCUG 43336 were kindly provided by the Department of Clinical Microbiology at University Hospital Center of Liege. Lactobacillus jensenii LMG 6414 was obtained from BCCM/LMG Bacteria Collection (University of Gent, Belgium). Log-phase bacteria were grown on Columbia agar with 5% sheep blood (Becton Dickinson, Franklin Lakes, NJ, USA) at 37 °C in a humidified CO2 atmosphere (Lactobacilli) or in anaerobic jars (G. vaginalis). To analyze the antimicrobial effect of innate peptides expressed by vaginal/cervical mucosa, 5 × 10^4 colony-forming unit (CFU)/ml were mixed with different peptides (concentration range: 1–10 µg/ml) in 10 mM sodium phosphate buffer (SPB) (final volume 100 µl) and incubated for 45 min to 9 h at 37 °C. Where indicated, the peptides were incubated with 2 mM dithiothreitol (DTT) (Invitrogen, Carlsbad, CA, USA) for 30 min at 37 °C before adding the bacteria. In indicated experiments, incubation was carried out in potassium phosphate buffer (KPB) (pH: 7.4, 10 mM). The following peptides were tested: HβD1 (PeptaNova, Sandhausen, Germany), HβD2 (PeptaNova), HβD3 (PeptaNova), HβD4 (PeptaNova), HD-5 (PeptaNova), HD-6 (PeptaNova), elafin (PeptaNova), S100A7 (Abnova, Taipei City, Taiwan) and SLPI (R&D Systems, Minneapolis, MI, USA). Bacterial suspensions were then plated on Columbia Blood agar plates for 24–48 h to determine CFU. High-resolution images for each condition were taken. Colony detection and counts were finally performed using ImageJ software (NIH, Bethesda, MD, USA) and verified by manual counting.

[2] = test system: Lactobacillus iners CIP 105923; assay: as above; type: cell-based; settings: for Bacterial survival (surviving colonies): Fig 5E, L. iners, individual replicates; for Bacterial survival (surviving colonies) / positive effect on survival in acidic conditions: pH 5.8; for positive effect on survival in potassium phosphate buffer: KPB pH 7.4, 10 mM; for positive effect on survival in potassium phosphate buffer / positive effect on survival in acidic conditions / effect on bacterial growth/survival (percentage of surviving colonies): 6 h; for positive effect on survival in potassium phosphate buffer / positive effect on survival in acidic conditions: n = 4; for effect on bacterial growth/survival (percentage of surviving colonies): peptide 1–10 µg/ml, 5 × 10^4 CFU/ml, 10 mM sodium phosphate buffer, 37 °C, plated on Columbia Blood agar, n = 3; for antimicrobial/protective activity in reducing environment: peptides pre-incubated with 2 mM DTT 30 min 37 °C, 6 h with bacteria, n = 5; for incubation time at which a significant increased percentage of surviving colonies was detected: starvation assay (no nutrients), n = 6
Method: as §1

[3] = test system: Lactobacillus jensenii LMG 6414; assay: as above; type: cell-based; settings: for Bacterial survival (surviving colonies): Fig 5E, L. jensenii, individual replicates; for Bacterial survival (surviving colonies) / positive effect on survival in acidic conditions: pH 5.8; for positive effect on survival in potassium phosphate buffer: KPB pH 7.4, 10 mM; for positive effect on survival in potassium phosphate buffer / positive effect on survival in acidic conditions / effect on bacterial growth/survival (percentage of surviving colonies): 6 h; for positive effect on survival in potassium phosphate buffer / positive effect on survival in acidic conditions / antimicrobial/protective activity in reducing environment: n = 4; for effect on bacterial growth/survival (percentage of surviving colonies): peptide 1–10 µg/ml, 5 × 10^4 CFU/ml, 10 mM sodium phosphate buffer, 37 °C, plated on Columbia Blood agar, n = 3; for antimicrobial/protective activity in reducing environment: peptides pre-incubated with 2 mM DTT 30 min 37 °C, 6 h with bacteria; for incubation time at which a significant increased percentage of surviving colonies was detected: starvation assay (no nutrients), 45 min to 9 h, n = 8
Method: as §1

L. crispatus [4] = assay: Internalization of fluorescent-labeled peptides in bacteria (flow cytometry); type: cell-based, Lactobacillus crispatus; settings: Atto 488-labeled peptide 5 µg/ml, 5 × 10^4 CFU/ml, 10 mM SPB, 1 h30, 37 °C, trypan blue, n = 3
Method: (§2) To determine the incorporation of selected peptides (or their hydrolyzed products) within the cytoplasm of several bacterial species, free amine groups (lysine residues and N-terminus) were first conjugated with Atto 488 dye according to manufacturer’s recommendations (Atto 488 protein labeling kit, Sigma Aldrich). A total 5 × 10^4 colony-forming unit (CFU)/ml were then mixed with fluorescent labeled peptides (5 µg/ml) in 10 mM sodium phosphate buffer (final volume 100 µl) and incubated for 1 h30 at 37 °C before being analyzed by flow cytometry. Where indicated, trypan blue was added before the analysis in order to exclusively consider cytoplasmic fluorescence.

L. jensenii [5] = assay: as above; type: cell-based, Lactobacillus jensenii; settings: Atto 488-labeled peptide 5 µg/ml, 5 × 10^4 CFU/ml, 10 mM SPB, 1 h30, 37 °C, trypan blue, n = 3
Method: as §2

L. iners [6] = assay: as above; type: cell-based, Lactobacillus iners; settings: Atto 488-labeled peptide 5 µg/ml, 5 × 10^4 CFU/ml, 10 mM SPB, 1 h30, 37 °C, trypan blue, n = 3
Method: as §2

L. crispatus [7] = assay: ATP measurement in bacteria (BacTiter-Glo); type: cell-based, Lactobacillus crispatus; settings: 6 × 10^7 CFU/ml, peptide 5 µg, 10 mM SPB, 6 h, 37 °C; luminescence; n = 5; statistical significance not reached in all conditions
Method: (§3) ATP level in bacteria was determined using the BacTiter-Glo Microbial Cell Viability Assay (Promega) according to manufacturer’s recommendations. For each bacterial species, 6 ×10^7 CFU/ml were mixed with elafin or S100A7 (5 µg) in 10 mM SPB and incubated 6 h at 37 °C. One hundred µl of bacterial-peptide solution were then mixed with an equal volume of BacTiter-Glo reagent and incubated for 5 min at room temperature. Luminescence was measured using a Centro LB960 microplate luminometer (Berthold Technologies, Bad Wildbad, Germany).

L. jensenii [8] = assay: ATP measurement in bacteria (BacTiter-Glo); type: cell-based, Lactobacillus jensenii; settings: 6 × 10^7 CFU/ml, peptide 5 µg, 10 mM SPB, 6 h, 37 °C; luminescence; n = 5; statistical significance not reached in all conditions
Method: as §3

L. iners [9] = assay: ATP measurement in bacteria (BacTiter-Glo); type: cell-based, Lactobacillus iners; settings: 6 × 10^7 CFU/ml, peptide 5 µg, 10 mM SPB, 6 h, 37 °C; luminescence; n = 5; statistical significance not reached in all conditions
Method: as §3

Row | Molecule | antimicrobial/protective activity in reducing environment [1] | Bacterial survival (surviving colonies) [1] | positive effect on survival in potassium phosphate buffer [1] | positive effect on survival in acidic conditions [1] | effect on bacterial growth/survival (percentage of surviving colonies) [1] | incubation time at which a significant increased percentage of surviving colonies was detected [1] | Bacterial survival (surviving colonies) [2] | positive effect on survival in potassium phosphate buffer [2] | positive effect on survival in acidic conditions [2] | effect on bacterial growth/survival (percentage of surviving colonies) [2] | antimicrobial/protective activity in reducing environment [2] | incubation time at which a significant increased percentage of surviving colonies was detected [2] | Bacterial survival (surviving colonies) [3] | positive effect on survival in potassium phosphate buffer [3] | positive effect on survival in acidic conditions [3] | effect on bacterial growth/survival (percentage of surviving colonies) [3] | antimicrobial/protective activity in reducing environment [3] | incubation time at which a significant increased percentage of surviving colonies was detected [3] | internalization of fluorescent-labeled peptide (or hydrolyzed products) within the cytoplasm of bacteria (L. crispatus [4]) | internalization of fluorescent-labeled peptide (or hydrolyzed products) within the cytoplasm of bacteria (L. jensenii [5]) | other results
1 | HβD3: epithelial member of the defensin family, host defense peptide (PeptaNova) (GIINTLQKYYCRVRGGRCAVLSCLPKEEQIGKCSTRGRKCCRRKK; not fully specified; ends and bridges not checked; UniProt P81534 23-67, looked up) | slight increase in the antibacterial activity | – | – | – | – | – | – | – | – | – | – | – | – | – | – | – | – | – | – | – | –
2 | elafin: "defensin-like" innate peptide constitutively secreted by cervical/vaginal mucosa (PeptaNova) (AQEPVKGPVSTKPGSCPIILIRCAMLNPPNRCLKDTDCPGIKKCCEGSCGMACFVPQ; not fully specified; ends and bridges not checked; UniProt P19957 61-117, looked up) | significant protective effect | 124.66 and 146.1 and 157.25 and 154.15 | did not modify the positive effect | did not modify the positive effect | do not display any antimicrobial activities | only detected after 3 or 6 h | 148.35 and 185.56 and 157.03 and 142.84 | did not modify the positive effect | did not modify the positive effect | do not display any antimicrobial activities | significant protective effect | only detected after 3 or 6 h | 223.81 and 226.19 and 261.90 and 150.02 | did not modify the positive effect | did not modify the positive effect | do not display any antimicrobial activities | significant protective effect | only detected after 3 or 6 h | internalization | internalization | internalization of fluorescent-labeled peptide (or hydrolyzed products) within the cytoplasm of bacteria (L. iners [6]): internalization; ATP production (L. crispatus [7]): increase of ATP production; ATP production (L. jensenii [8]): increase of ATP production; ATP production (L. iners [9]): increase of ATP production
3 | S100A7: "defensin-like" innate peptide constitutively secreted by cervical/vaginal mucosa (Abnova) (protein, UniProt P31151 2-101, looked up) Protein S100-A7: SNTQAERSIIGMIDMFHKYTRRDDKIEKPSLLTMMKENFPNFLSACDKKGTNYLADVFEKKDKNEDKKIDFSEFLSLLGDIATDYHKQSHGAAPCSGGSQ | significant protective effect | 127.74 and 112.92 and 139.54 and 168.69 | did not modify the positive effect | did not modify the positive effect | do not display any antimicrobial activities | only detected after 3 or 6 h | 138.53 and 246.67 and 123.50 and 159.47 | did not modify the positive effect | did not modify the positive effect | do not display any antimicrobial activities | significant protective effect | only detected after 3 or 6 h | 419.05 and 164.29 and 304.76 and 269.05 | did not modify the positive effect | did not modify the positive effect | do not display any antimicrobial activities | significant protective effect | only detected after 3 or 6 h | internalization | internalization | internalization of fluorescent-labeled peptide (or hydrolyzed products) within the cytoplasm of bacteria (L. iners [6]): internalization; ATP production (L. crispatus [7]): increase of ATP production; ATP production (L. jensenii [8]): increase of ATP production; ATP production (L. iners [9]): increase of ATP production
